According to patent publication US20060183759A1, “Tissue transglutaminase inhibitors” (priority 2004, published 2006):
Counter-ions that a name gives are not always drawn. Like-named read-outs stand apart in the source and are kept apart here.

Assays:
[1] = target: T1, transglutaminase 2 (TGase 2) (Homo sapiens, UniProt P21980); assay: TGase 2 transpeptidase fluorescence assay: incorporation of KXD into N,N-dimethylated-casein (Std and FPC formats); format: biochemical; conditions: for TGase 2 inhibitory activity, SAR comment in words (relative to parent compound): qualitative comparison
T1 sequence (P21980 1-687): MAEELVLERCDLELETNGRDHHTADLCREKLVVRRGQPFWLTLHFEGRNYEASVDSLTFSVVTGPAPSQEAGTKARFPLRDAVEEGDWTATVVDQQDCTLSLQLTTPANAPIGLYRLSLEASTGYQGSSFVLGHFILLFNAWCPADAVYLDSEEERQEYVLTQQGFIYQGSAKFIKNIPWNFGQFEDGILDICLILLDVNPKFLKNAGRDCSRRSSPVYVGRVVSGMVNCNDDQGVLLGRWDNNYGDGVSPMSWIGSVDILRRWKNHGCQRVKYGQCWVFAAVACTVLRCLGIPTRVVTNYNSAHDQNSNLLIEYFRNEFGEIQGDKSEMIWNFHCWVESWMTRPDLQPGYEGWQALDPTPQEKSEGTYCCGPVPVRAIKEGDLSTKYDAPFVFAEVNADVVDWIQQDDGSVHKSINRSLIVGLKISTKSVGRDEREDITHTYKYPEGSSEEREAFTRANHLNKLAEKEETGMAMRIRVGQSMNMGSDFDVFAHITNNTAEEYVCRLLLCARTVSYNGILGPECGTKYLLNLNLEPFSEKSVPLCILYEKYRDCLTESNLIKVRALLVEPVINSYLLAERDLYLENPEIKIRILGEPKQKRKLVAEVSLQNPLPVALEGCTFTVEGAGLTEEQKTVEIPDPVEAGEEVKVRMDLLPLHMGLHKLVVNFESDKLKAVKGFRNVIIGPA
Procedure: Transpeptidase activity was monitored as the increase in fluorescence intensity (FI) that accompanies incorporation of the dansylated Lys derivative, α-N-Boc-Lys-CH2-CH2-dansyl (KXD), into the protein substrate, N,N-dimethylated-casein (NMC).
Therefore, a method was used in which full progress curves (FPC) were recorded for the TGase-catalyzed reaction of KXD with NMC in the presence of inhibitor (Table 1-4). Reactions were initiated by enzyme addition to a solution of substrate and inhibitor. […] From such progress curves, IC50 values were calculated using the following equation: IC50=[I]/{(vc/vss)−1}. Progress curves recorded at several inhibitor concentrations were used to determine FPC IC50 values (Table 1-4).

[2] = target: T1, transglutaminase 2 (TGase 2); assay: as above; format: biochemical; conditions: standard format (Std): reactions terminated after 60 min, FI recorded, four-parameter fit
[3] = full progress curves (FPC), IC50=[I]/{(vc/vss)−1}, from steady-state velocity, read-out: IC50 (μM, FPC)
[4] = summary of FPC values, read-out: FPC IC50 values

IC50 [1, 3] [µM] | IC50 [2] [µM] | Compound | other results
0.29 |  | NNC(=O)CSc1nc2scc(-c3cccc(F)c3)c2c(=O)n1-c1cccc(F)c1 [986-38, [3,5-Bis-(3-fluorophenyl)-4-oxo-3,4-dihydrothieno[2,3-d]pyrimidin-2-ylsulfanyl]acetic acid hydrazide] | 
 | 8.4 | Cn1c(SCC(=O)NN)nc2scc(-c3ccccc3)c2c1=O [986-10, (3-Methyl-4-oxo-5-phenyl-3,4-dihydrothieno[2,3-d]pyrimidin-2-ylsulfanyl)acetic acid hydrazide] | 
0.14 |  | NNC(=O)CSc1nc2scc(-c3ccccc3F)c2c(=O)n1-c1cccc(F)c1 [986-37, [3-(3-Fluorophenyl)-5-(2-fluorophenyl)-4-oxo-3,4-dihydrothieno[2,3-d]pyrimidin-2-ylsulfanyl]acetic acid hydrazide] | IC50 [1, 4]: < 0.16 µM
 | 1.5 | NNC(=O)CSc1nc2scc(-c3ccccc3)c2c(=O)n1-c1cccc(Cl)c1 [986-24, [3-(3-Chlorophenyl)-4-oxo-5-phenyl-3,4-dihydrothieno[2,3-d]pyrimidin-2-ylsulfanyl]acetic acid hydrazide] | 
3.7 |  | NNC(=O)CNc1nc2scc(-c3ccccc3)c2c(=O)n1-c1ccccc1 [986-05, (4-Oxo-3,5-diphenyl-3,4-dihydrothieno[2,3-d]pyrimidin-2-ylamino)acetic acid hydrazide] | TGase 2 inhibitory activity, SAR comment in words (relative to parent compound) [1]: decreased activity
 | 1.4 | NNC(=O)CSc1nc2scc(-c3ccccc3O)c2c(=O)n1-c1cccc(F)c1 [986-34, [3-(3-Fluorophenyl)-5-(2-hydroxyphenyl)-4-oxo-3,4-dihydrothieno[2,3-d]pyrimidin-2-ylsulfanyl]acetic acid hydrazide] | 
 | 5.3 | NCC(=O)CSc1nc2scc(-c3ccccc3)c2c(=O)n1-c1cccc(F)c1 [986-56, 2-(3-Amino-2-oxo-propylsulfanyl)-3-(3-fluorophenyl)-5-phenyl-3H-thieno[2,3-d]pyrimidin-4-one hydrochloride] | 
 | > 20 | CCOC(=O)CSc1nc2scc(-c3ccccc3)c2c(=O)n1-c1ccc(F)cc1 [986-58, [3-(4-Fluorophenyl)-4-oxo-5-phenyl-3,4-dihydrothieno[2,3-d]pyrimidin-2-ylsulfanyl]acetic acid ethyl ester] | 
 | 2.6 | NNC(=O)CSc1nc2scc(-c3ccccc3)c2c(=O)n1C1CCCCC1 [986-17, (3-Cyclohexyl-4-oxo-5-phenyl-3,4-dihydrothieno[2,3-d]pyrimidin-2-ylsulfanyl)acetic acid hydrazide] | 
 | 2.3 | NNC(=O)CSc1nc2scc(-c3ccccc3)c2c(=O)n1Cc1ccccc1 [986-14, (3-Benzyl-4-oxo-5-phenyl-3,4-dihydrothieno[2,3-d]pyrimidin-2-ylsulfanyl)acetic acid hydrazide] | 

More lines, now with the values behind:

Compound | IC50 [1, 3] [µM] | IC50 [2] [µM] | other results
NNC(=O)CSc1nc2sc3c(c2c(=O)n1-c1cccc(F)c1)C(Cc1ccccc1)CCC3 (stereo not shown) [986-45, [5-Benzyl-3-(3-fluorophenyl)-4-oxo-3,4,5,6,7,8-hexahydrobenzo[4,5]thieno[2,3-d]pyrimidin-2-ylsulfanyl]acetic acid hydrazide] |  | 2.3 | 
Cc1sc2nc(SCC(=O)NN)n(-c3cccc(F)c3)c(=O)c2c1-c1ccccc1F [986-40, [3-(3-Fluorophenyl)-5-(2-fluorophenyl)-6-methyl-4-oxo-3,4-dihydrothieno[2,3-d]pyrimidin-2-ylsulfanyl]acetic acid hydrazide] | 0.15 |  | IC50 [1, 4]: < 0.16 µM
NNC(=O)CSc1nc2sc(Cl)c(-c3ccccc3F)c2c(=O)n1-c1cccc(F)c1 [986-39, [6-Chloro-3-(3-fluorophenyl)-5-(2-fluorophenyl)-4-oxo-3,4-dihydrothieno[2,3-d]pyrimidin-2-ylsulfanyl]acetic acid hydrazide] | 0.13 |  | TGase 2 inhibitory activity, SAR comment in words (relative to parent compound) [1]: increased activity; IC50 [1, 4]: < 0.16 µM
NC(=O)CSc1nc2scc(-c3ccccc3F)c2c(=O)n1-c1cccc(F)c1 [986-53, 2-[3-(3-Fluorophenyl)-5-(2-fluorophenyl)-4-oxo-3,4-dihydrothieno[2,3-d]pyrimidin-2-ylsulfanyl]acetamide] |  | > 10 | 
CC1CCCc2sc3nc(SCC(=O)NN)n(-c4cccc(F)c4)c(=O)c3c21 (stereo not shown) [986-43, [3-(3-Fluorophenyl)-5-methyl-4-oxo-3,4,5,6,7,8-hexahydrobenzo[4,5]thieno[2,3-d]pyrimidin-2-ylsulfanyl]acetic acid hydrazide] | 0.2 |  | 
CC(C)c1sc2nc(SCC(=O)NN)n(-c3cccc(F)c3)c(=O)c2c1-c1ccccc1F [986-41, [3-(3-Fluorophenyl)-5-(2-fluorophenyl)-6-isopropyl-4-oxo-3,4-dihydrothieno[2,3-d]pyrimidin-2-ylsulfanyl]acetic acid hydrazide] | 0.9 |  | TGase 2 inhibitory activity, SAR comment in words (relative to parent compound) [1]: detrimental
CC(C)c1csc2nc(SCC(=O)NN)n(-c3cccc(F)c3)c(=O)c12 [986-36, [3-(3-Fluorophenyl)-5-isopropyl-4-oxo-3,4-dihydrothieno[2,3-d]pyrimidin-2-ylsulfanyl]acetic acid hydrazide] | 0.23 |  | TGase 2 inhibitory activity, SAR comment in words (relative to parent compound) [1]: no loss in activity
O=C(CSc1nc2scc(-c3ccc(F)cc3)c2c(=O)n1-c1ccc(F)cc1)NO [986-55, 2-[3,5-Bis-(4-fluorophenyl)-4-oxo-3,4-dihydrothieno[2,3-d]pyrimidin-2-ylsulfanyl]-N-hydroxyacetamide] |  | > 20 | 
COc1ccccc1-c1csc2nc(SCC(=O)NN)n(-c3cccc(F)c3)c(=O)c12 [986-31, [3-(3-Fluorophenyl)-5-(2-methoxyphenyl)-4-oxo-3,4-dihydrothieno[2,3-d]pyrimidin-2-ylsulfanyl]acetic acid hydrazide] | 0.14 |  | IC50 [1, 4]: < 0.16 µM
CC(C)(C)OC(=O)N1CCc2c(sc3nc(SCC(=O)NN)n(-c4cccc(F)c4)c(=O)c23)C1 [986-46, 3-(3-Fluorophenyl)-2-hydrazinocarbonylmethylsulfanyl-4-oxo-3,5,6,8-tetrahydro-4H-9-thia-1,3,7-triazafluorene-7-carboxylic acid tert-butyl ester] | 1.1 |  | 
NNC(=O)CSc1nc2sc3c(c2c(=O)n1-c1cccc(F)c1)CCCC3 [986-42, [3-(3-Fluorophenyl)-4-oxo-3,4,5,6,7,8-hexahydrobenzo[4,5]thieno[2,3-d]pyrimidin-2-ylsulfanyl]acetic acid hydrazide] | 0.45 |  | 
COc1ccc(-c2csc3nc(SCC(=O)NN)n(-c4cccc(F)c4)c(=O)c23)cc1 [986-33, [3-(3-Fluorophenyl)-5-(4-methoxyphenyl)-4-oxo-3,4-dihydrothieno[2,3-d]pyrimidin-2-ylsulfanyl]acetic acid hydrazide] | 0.28 |  | 
CN1CCc2c(sc3nc(SCC(=O)NN)n(-c4cccc(F)c4)c(=O)c23)C1 [986-48, [3-(3-Fluorophenyl)-7-methyl-4-oxo-3,4,5,6,7,8-hexahydro-9-thia-1,3,7-triazafluoren-2-ylsulfanyl]acetic acid hydrazide] | 0.53 |  | 
CNNC(=O)CSc1nc2scc(-c3ccc(F)cc3)c2c(=O)n1-c1ccc(F)cc1 [986-51, [3,5-Bis-(4-fluorophenyl)-4-oxo-3,4-dihydrothieno[2,3-d]pyrimidin-2-ylsulfanyl]acetic acid N′-methylhydrazide] |  | > 20 | 
CCCN1CCc2c(sc3nc(SCC(=O)NN)n(-c4cccc(F)c4)c(=O)c23)C1 [986-49, [3-(3-Fluorophenyl)-4-oxo-7-propyl-3,4,5,6,7,8-hexahydro-9-thia-1,3,7-triazafluoren-2-ylsulfanyl]acetic acid hydrazide] |  | 6 | 
CN(N)C(=O)CSc1nc2scc(-c3ccc(F)cc3)c2c(=O)n1-c1ccc(F)cc1 [986-50, [3,5-Bis-(4-fluorophenyl)-4-oxo-3,4-dihydrothieno[2,3-d]pyrimidin-2-ylsulfanyl]acetic acid N-methylhydrazide] |  | > 20 | 
NNC(=O)CSc1nc2ccc(-c3ccccc3)cc2c(=O)n1-c1cccc(F)c1 [986-04, [3-(3-Fluorophenyl)-4-oxo-6-phenyl-3,4-dihydroquinazolin-2-ylsulfanyl]acetic acid hydrazide] | 1.5 |  | TGase 2 inhibitory activity, SAR comment in words (relative to parent compound) [1]: Activity was partly restored
NNC(=O)CSc1nc2sc3c(c2c(=O)n1-c1cccc(F)c1)CCNC3 [986-47, [3-(3-Fluorophenyl)-4-oxo-3,4,5,6,7,8-hexahydro-9-thia-1,3,7-triazafluoren-2-ylsulfanyl]acetic acid hydrazide] | 7.1 |  | 
